Reference: ChEMBL document CHEMBL1201862, “PubChem BioAssay data set” (2004)
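Step 1: Grow cells in 96-well plates. Step 2: Expose to compound for 48 hours at 5 concentrations. Step 3: Interpolate endpoints linearly; if unreached, use highest concentration. GI50: concentration for 50% inhibition of growth.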 The source made the active and inactive calls. No stated cut-off is given here; in the data, active = GI50 up to about 1.1 µM and inactive = higher.

Assays:
Experiment in all cases: growth of human tumour cells (NCI), 48 h
SNB-19 = test system: SNB-19
NCI-H23 = test system: NCI-H23
M14 = test system: M14
NCI-H522 = test system: NCI-H522
OVCAR-4 = test system: OVCAR-4
LOX IMVI = test system: LOX IMVI
UACC-62 = test system: UACC-62
HOP-92 = test system: HOP-92
SF-295 = test system: SF-295
HOP-62 = test system: HOP-62
SK-OV-3 = test system: SK-OV-3
COLO 205 = test system: COLO 205
A549 = test system: A549
SW-620 = test system: SW-620
SK-MEL-28 = test system: SK-MEL-28
SR = test system: SR
ACHN = test system: ACHN
Malme-3M = test system: Malme-3M

SMILES | GI50 (SNB-19) | GI50 (NCI-H23) | GI50 (M14) | GI50 (NCI-H522) | GI50 (OVCAR-4) | GI50 (LOX IMVI) | GI50 (UACC-62) | GI50 (HOP-92) | GI50 (SF-295) | GI50 (HOP-62) | GI50 (SK-OV-3) | GI50 (COLO 205) | GI50 (A549) | GI50 (SW-620) | GI50 (SK-MEL-28) | GI50 (SR) | GI50 (ACHN) | GI50 (Malme-3M)
COc1ccc(NCc2cc(OC)c(OC)c(OC)c2)cc1 | 1.19 µM (inactive) | 0.513 µM (active) | 0.457 µM (active) | 0.372 µM (active) | 21.4 µM (inactive) | 0.519 µM (active) | 0.271 µM (active) | 2.15 µM (inactive) | 0.242 µM (active) | 0.378 µM (active) | 0.504 µM (active) | 0.233 µM (active) | 0.578 µM (active) | 0.234 µM (active) | 0.275 µM (active) | – | – | –
O=C(O/N=C1/CCC/C1=C\c1ccccc1)c1ccc(Cl)c(Cl)c1 | – | > 100 µM (inactive) | > 100 µM (inactive) | > 100 µM (inactive) | 35 µM (inactive) | > 100 µM (inactive) | > 100 µM (inactive) | > 100 µM (inactive) | > 100 µM (inactive) | > 100 µM (inactive) | > 100 µM (inactive) | > 100 µM (inactive) | > 100 µM (inactive) | > 100 µM (inactive) | > 100 µM (inactive) | > 100 µM (inactive) | > 100 µM (inactive) | > 100 µM (inactive)
O=S(=O)(c1cccc(N=C=S)c1)c1cccc(N=C=S)c1 | 64.1 µM (inactive) | 17.1 µM (inactive) | 11.4 µM (inactive) | 16.7 µM (inactive) | – | 17.7 µM (inactive) | 19.1 µM (inactive) | – | 19.5 µM (inactive) | 11.3 µM (inactive) | 19.2 µM (inactive) | 19.5 µM (inactive) | > 100 µM (inactive) | > 10 µM (inactive) | 18.2 µM (inactive) | – | 18.6 µM (inactive) | 18.9 µM (inactive)
COc1ccc2c3c([nH]c2c1[N+](=O)[O-])C(C)N(C(=O)/C=C/c1ccccc1)CC3 (stereo not drawn) | 36.9 µM (inactive) | 25.5 µM (inactive) | 5.92 µM (inactive) | 2.9 µM (inactive) | 21.9 µM (inactive) | 2.92 µM (inactive) | 2.07 µM (inactive) | – | 2.42 µM (inactive) | 5.28 µM (inactive) | – | 3.46 µM (inactive) | 14.3 µM (inactive) | 3.56 µM (inactive) | 5.14 µM (inactive) | 3.92 µM (inactive) | 9.77 µM (inactive) | –
CC1(CO)OC(n2cc(C(=O)NC(=O)OCc3ccccc3)c(=O)[nH]c2=O)CC1O (stereo not drawn) | > 100 µM (inactive) | > 100 µM (inactive) | > 100 µM (inactive) | > 100 µM (inactive) | – | > 100 µM (inactive) | > 100 µM (inactive) | > 100 µM (inactive) | > 100 µM (inactive) | > 100 µM (inactive) | > 100 µM (inactive) | > 100 µM (inactive) | > 100 µM (inactive) | > 100 µM (inactive) | > 100 µM (inactive) | > 100 µM (inactive) | > 100 µM (inactive) | > 100 µM (inactive)
CC(C)(C)C1CC[C@H]2c3c([nH]c4ccccc34)[C@H]3C(=O)N(c4ccc(F)cc4)C(=O)[C@H]3[C@H]2C1 (stereo partly drawn) | 15.9 µM (inactive) | 18.6 µM (inactive) | 18.5 µM (inactive) | 12.4 µM (inactive) | 11.2 µM (inactive) | 20.3 µM (inactive) | 15.5 µM (inactive) | 28.1 µM (inactive) | 14.8 µM (inactive) | 16.5 µM (inactive) | 17.8 µM (inactive) | 14.5 µM (inactive) | 12 µM (inactive) | 17 µM (inactive) | 23.6 µM (inactive) | – | 14.1 µM (inactive) | 16.9 µM (inactive)
O=c1oc2ccccc2c(O)c1C(C/C(CCN1CCCC1)=N\Nc1ccccc1)c1ccccc1 (stereo not drawn) | 69.5 µM (inactive) | 57.3 µM (inactive) | 93.1 µM (inactive) | 51.2 µM (inactive) | 97.7 µM (inactive) | 55.6 µM (inactive) | 76 µM (inactive) | 16.3 µM (inactive) | 55.7 µM (inactive) | 94.2 µM (inactive) | 94.4 µM (inactive) | – | > 100 µM (inactive) | 44.6 µM (inactive) | – | 31.2 µM (inactive) | 54.8 µM (inactive) | 78.5 µM (inactive)
Nc1nc(CCl)nc(Nc2ccccc2)n1 | 46.6 µM (inactive) | 18.6 µM (inactive) | 16.9 µM (inactive) | 1.75 µM (inactive) | 17.4 µM (inactive) | – | 19 µM (inactive) | 18.2 µM (inactive) | 23.8 µM (inactive) | 16.3 µM (inactive) | – | 21.8 µM (inactive) | 26.2 µM (inactive) | 21.3 µM (inactive) | 15.8 µM (inactive) | 12.9 µM (inactive) | 27 µM (inactive) | 17.4 µM (inactive)
C/C(CCn1[nH]c(=O)ccc1=O)=N\N=C(N)N | > 100 µM (inactive) | > 100 µM (inactive) | > 100 µM (inactive) | – | > 100 µM (inactive) | > 100 µM (inactive) | > 100 µM (inactive) | > 100 µM (inactive) | > 100 µM (inactive) | > 100 µM (inactive) | – | – | > 100 µM (inactive) | > 100 µM (inactive) | > 100 µM (inactive) | > 100 µM (inactive) | > 100 µM (inactive) | > 100 µM (inactive)
CN(C)c1ccc2c(c1)C(=O)N(OS(=O)(=O)c1ccc([N+](=O)[O-])cc1)C2=O | 41.7 µM (inactive) | 26.2 µM (inactive) | 17.4 µM (inactive) | 15 µM (inactive) | 15.7 µM (inactive) | – | 17.1 µM (inactive) | > 10 µM (inactive) | 25.2 µM (inactive) | 37.1 µM (inactive) | > 100 µM (inactive) | 24.3 µM (inactive) | 39.2 µM (inactive) | 20.4 µM (inactive) | 26.1 µM (inactive) | 22.4 µM (inactive) | 24.7 µM (inactive) | 31.2 µM (inactive)
O=[N+]([O-])c1ccc(C2=NN(c3ccccc3)C[N+](c3ccc(Br)cc3)=N2)cc1 | > 100 µM (inactive) | 70.6 µM (inactive) | > 100 µM (inactive) | 38.1 µM (inactive) | > 100 µM (inactive) | – | > 100 µM (inactive) | 78.7 µM (inactive) | 75.5 µM (inactive) | > 100 µM (inactive) | > 100 µM (inactive) | > 100 µM (inactive) | 82 µM (inactive) | > 100 µM (inactive) | > 100 µM (inactive) | 96.8 µM (inactive) | > 100 µM (inactive) | > 100 µM (inactive)
NC1=C(NC(=O)Cc2ccccc2F)C(=O)c2ccccc2C1=O | 35.8 µM (inactive) | 40.6 µM (inactive) | > 100 µM (inactive) | 21.6 µM (inactive) | 42 µM (inactive) | – | 37.8 µM (inactive) | 22.3 µM (inactive) | 32.6 µM (inactive) | 25.5 µM (inactive) | – | > 100 µM (inactive) | 59.3 µM (inactive) | 97.3 µM (inactive) | > 100 µM (inactive) | – | 76.9 µM (inactive) | 13.6 µM (inactive)
CC1=C(C(=O)Nc2ccccc2C)C(c2ccc(N(C)C)cc2)C(C(=O)Nc2ccccc2C)=C(C)N1 | > 100 µM (inactive) | 58.7 µM (inactive) | – | 37.8 µM (inactive) | – | 56.8 µM (inactive) | 44.3 µM (inactive) | – | > 100 µM (inactive) | 28.6 µM (inactive) | > 100 µM (inactive) | > 100 µM (inactive) | 94 µM (inactive) | 51.8 µM (inactive) | 74.8 µM (inactive) | – | 67.6 µM (inactive) | 82.6 µM (inactive)
COc1ccccc1NC(=O)C1=C(C)NC(C)=C(C(=O)Nc2ccccc2OC)C1c1ccccc1[N+](=O)[O-] | – | 16.8 µM (inactive) | 16.1 µM (inactive) | 13.1 µM (inactive) | 18.9 µM (inactive) | 15.5 µM (inactive) | 21.3 µM (inactive) | 25.6 µM (inactive) | 32.4 µM (inactive) | 33.2 µM (inactive) | 26.9 µM (inactive) | 16.9 µM (inactive) | > 100 µM (inactive) | – | 17.5 µM (inactive) | 11.5 µM (inactive) | 18.6 µM (inactive) | 13.9 µM (inactive)
COc1cc(C=O)c(-c2c(C=O)ccc3c2OCO3)c(OC)c1OC | 49.8 µM (inactive) | > 100 µM (inactive) | 74.1 µM (inactive) | 88.5 µM (inactive) | > 100 µM (inactive) | 54.6 µM (inactive) | 62.5 µM (inactive) | – | 60.4 µM (inactive) | > 100 µM (inactive) | > 100 µM (inactive) | 64.9 µM (inactive) | > 100 µM (inactive) | 38.2 µM (inactive) | 74.6 µM (inactive) | 29.6 µM (inactive) | > 100 µM (inactive) | 67.3 µM (inactive)
O=C(c1ccccc1)C(C(=O)c1ccccc1)C1(O)C(=O)c2ccccc2C1=O | 37.3 µM (inactive) | 28.6 µM (inactive) | 26.9 µM (inactive) | 14.1 µM (inactive) | – | 32.4 µM (inactive) | 32.6 µM (inactive) | 25.8 µM (inactive) | 28.2 µM (inactive) | 29.4 µM (inactive) | 48.8 µM (inactive) | 45.4 µM (inactive) | 29.3 µM (inactive) | 38.7 µM (inactive) | 3.6 µM (inactive) | 29.1 µM (inactive) | 31.9 µM (inactive) | 24.2 µM (inactive)
O=S(=O)(SCCCCSS(=O)(=O)c1ccc(Cl)cc1)c1ccc(Cl)cc1 | 10.2 µM (inactive) | 10.3 µM (inactive) | 14.6 µM (inactive) | 5.06 µM (inactive) | 15.1 µM (inactive) | 3.39 µM (inactive) | 12.2 µM (inactive) | 8.51 µM (inactive) | 3.92 µM (inactive) | 20.1 µM (inactive) | 15.3 µM (inactive) | 14.9 µM (inactive) | 13.5 µM (inactive) | 9.46 µM (inactive) | 17.8 µM (inactive) | – | 16.3 µM (inactive) | 15.4 µM (inactive)
